± gives the expanded uncertainty stated by the source.

This passage reports refractive index and mass density results from the NIST ThermoML archive (doi:10.1016/j.fluid.2013.01.015).

Data set [1] in a line: refractive index (Na D-line) (dimensionless). The settings on record: 298.15 K; 101.33 kPa; Liquid; Standard Abbe refractometry.
For data set [2] the following is noted: 298.15 K; 101.33 kPa; Liquid; Vibrating tube method.

As a reminder, the refractive index is the speed of light in vacuum divided by its phase velocity in the sample. One may read the mass density as the mass of a sample divided by its volume. As to `Cc1ccccc1C` [1,2-dimethylbenzene], the refractive index in data set [1] was 1.49466 ± 0.00072. Also, in data set [2], the mass density came out at 859.54 ± 0.14 kg/m3.

In the case of `Cc1cccc(C)c1` [1,3-dimethylbenzene], the refractive index in data set [1] turned out to be 1.49464 ± 0.00072. The mass density in data set [2] worked out at 859.95 ± 0.14 kg/m3.

As to `Cc1ccc(C)cc1` [1,4-dimethylbenzene], the refractive index in data set [1] is 1.4958 ± 0.0007. Besides, the mass density in data set [2] is 856.71 ± 0.14 kg/m3.

For `CCCCCCCC` [octane], in data set [1], the refractive index is 1.3951 ± 0.0007. Besides, in data set [2], the mass density is 698.61 ± 0.17 kg/m3.
